Reference: US20060275303A1, “Modulating angiogenesis using LL-37/HCAP-18” (priority 2003, published 2006)
Entries after “also recorded” stand apart in the source; their conditions may differ. Where no end group is shown, it is not given here. [ ]: non-standard residue; d: D form.

Key:
HUVECs [1] = assay: Inhibition of the LL-37/hCAP-18-induced proliferative response of endothelial cells; type: cell-based, human; conditions: for effect of the inhibitor on LL-37/hCAP-18-induced endothelial proliferation: HUVECs preincubated with the inhibitor (pertussis toxin 10 ng/ml); for effect of the inhibitor on baseline cell proliferation: HUVECs, without LL-37/hCAP-18
Experimental: (§1) Endothelial cells from human umbilical veins (HUVEC) were isolated as described before^8. 10^4 cells were seeded on six well plastic dishes in serum free medium. Different concentrations of LL-37 were added to the culture medium. VEGF (5 ng/ml, 165 amino acid variant, Sigma Chemicals, Munich, Germany) was used as positive control. After 72 h the cells were detached from the support and counted. Experiments were repeated ten times using synthetic LL-37/hCAP-18 (37 C-terminal amino acids) and the hexapeptide WKYMVm, wherein “m” denotes the D-form of the amino acid methionine, from two different sources (IPF Pharmaceuticals, Hannover, Germany and Institute for Biochemistry, Humboldt-University of Berlin, Germany). As control peptide we used the peptide L-14 […] to have any interactions with FPRL1 from the same source (Humboldt-University). Human serum (10%, donor with ABO blood group O) was applied under the same conditions to analyze any impact on induction of proliferation by LL-37. For inhibition experiments we applied inhibitors of G-protein coupled receptors (pertussis toxin, 10 ng/ml), PI-3K (wortmannin), and PKC (GF 109203X). For Matrigel assays HUVECs were seeded on Matrigel support (Beckton Dickinson, Franklin Lakes, N.J.) and cultivated in serum free medium in the absence or presence of 0.5 μg/ml LL-37. After 18 h, the cultures were inspected for the formation of rings and cords. Experiments were repeated three times.
As a next step we analyzed which mechanisms might be involved in the angiogenic activity of LL-37/hCAP-18. We applied inhibitors of G-protein coupled receptors (pertussis toxin), PI-3K (wortmannin), and PKC (GF 109203X) and monitored cell proliferation as outcome parameter.

HUVECs [2] = assay: In vitro proliferation assay with HUVECs; type: cell-based, human
Experimental: as §1
We measured the ability of LL-37/hCAP-18 to accelerate proliferation of HUVECs in a proliferation assay. […] HUVECs were seeded on six well plastic dishes and cultivated in serum free medium. Different concentrations of LL-37/hCAP-18 and control peptides were added to the culture medium. Figures on the left hand side indicate the numbers of cells per μl of volume after 72 h. VEGF was used as positive control. In vitro proliferation was not inhibited by human serum. A significance level of P<0.05 is labeled with **.b. […] HUVECs were seeded on Matrigel support and cultivated in serum free medium in the absence (c) or presence (d) of 0.5 μg/ml LL-37/hCAP-18. After 18 h, the cultures were inspected for the formation of rings and cords. Representative figures are shown.

ischemic hindlimb = assay: Rabbit hind limb model of arteriogenesis and angiogenesis; type: in vivo; conditions: 200 μg intramuscular 7 days after femoral artery excision, vs PBS control, day 35
Experimental: To analyze angiogenic effects of LL-37 in vivo we used a rabbit model of angiogenesis. German Giant Rabbits (6.5±0.4 kg, n=8) were subjected to ligation of the external iliac artery (proximally), the popliteal and saphenous arteries (distally) and all femoral artery branches, followed by excision of the entire femoral artery. Seven days after surgery, synthetic LL-37 (200 μg in 1 ml PBS) or PBS alone as control were injected into the muscles of the medial thigh and the calf (5 injections sites, n=4/group). Seven (baseline) and thirty-five days after surgery, angiography was performed by automated injection of contrast agent into the abdominal aorta (4 ml at 2 ml/sec; cine-angiography 25 frames/sec; Siemens, Munich, Germany). Collateral growth was defined as the increase in angiographic collateral score between baseline and 35 days after initial surgery (assessed by counting the contrast-opacified collateral vessels in the medial thigh using a grid overlay)^12. Blood flow was assessed by cine-frame-count of the passage time of contrast agent between the common iliac artery and the anterior tibial artery (proximal and distal landmarks), adapting the TIMI frame-count method to peripheral blood flow^13. Blood flow measurements correlate well with results obtained with doppler flow-wire in the internal iliac artery (Jomed, Haan, Germany). Tissue specimens were sampled from the right gastrocnemius and fibularis muscles for histology (alkaline phosphatase staining using an indoxyl-tetrazolium method), capillary density was assessed as the ratio of capillaries to muscle fibers (4 fields, 200× magnitude).
To assess the effect of LL-37/hCAP-18 on both angiogenesis and the induction of collateral circulation under pathological conditions, we applied the substance in a rabbit hind limb model. In this model angiogenesis and collateral vessel growth (arteriogenesis) are induced by excision of the femoral artery. Seven days after surgical excision of the femoral artery, baseline measurements were performed and LL-37/hCAP-18 or buffer as control were injected into the ischemic hindlimb.

HUVECs [3] = assay: In vitro Matrigel assay (formation of rings and cords); type: cell-based, human; conditions: HUVECs on Matrigel, serum free medium, 0.5 μg/ml, 18 h
Experimental: Endothelial cells from human umbilical veins (HUVEC) were isolated as described before^8. 10^4 cells were seeded on six well plastic dishes in serum free medium. Different concentrations of LL-37 were added to the culture medium. VEGF (5 ng/ml, 165 amino acid variant, Sigma Chemicals, Munich, Germany) was used as positive control. After 72 h the cells were detached from the support and counted. Experiments were repeated ten times using synthetic LL-37/hCAP-18 (37 C-terminal amino acids) and the hexapeptide WKYMVm, wherein “m” denotes the D-form of the amino acid methionine, from two different sources (IPF Pharmaceuticals, Hannover, Germany and Institute for Biochemistry, Humboldt-University of Berlin, Germany). As control peptide we used the peptide L-14 […] to have any interactions with FPRL1 from the same source (Humboldt-University). Human serum (10%, donor with ABO blood group O) was applied under the same conditions to analyze any impact on induction of proliferation by LL-37. For inhibition experiments we applied inhibitors of G-protein coupled receptors (pertussis toxin, 10 ng/ml), PI-3K (wortmannin), and PKC (GF 109203X). […]
We measured the ability of LL-37/hCAP-18 to accelerate proliferation of HUVECs in a proliferation assay. […]

[4] = serum free medium, cell count after 72 h

Row | Compound | effect of the inhibitor on LL-37/hCAP-18-induced endothelial proliferation (HUVECs [1]) | effect of the inhibitor on baseline cell proliferation (HUVECs [1]) | endothelial proliferation (HUVECs [2]; [4]) | further results
1 | pertussis toxin | inhibition of the proliferative response; also recorded: inhibited activities of LL-37/hCAP-18 on endothelial proliferation | no effect on the baseline measurements | – | –
2 | CN(C)CCCn1cc(C2=C(c3c[nH]c4ccccc34)C(=O)NC2=O)c2ccccc21 [GF 109203X] | inhibition of the proliferative response; also recorded: inhibited activities of LL-37/hCAP-18 on endothelial proliferation | no effect on the baseline measurements | – | –
3 | WKYMVm (WKYMV[dM]) [synthetic hexapeptide, "m" denotes the D-form of methionine; specific agonist for FPRL1, reference compound] | – | – | stimulated proliferation of endothelial cells | –
4 | LLGDFFRKSKEKIGKEFKRIVQRIKDFLRNLVPRTES [LL-37/hCAP-18, human cathelicidin antimicrobial peptide, the 37 C-terminal amino acid residues; synthetic peptide used in the tests] | – | – | dose-dependent increase of endothelial proliferation | blood flow (cine-frame-count of contrast agent passage time) (ischemic hindlimb): significantly increased; also recorded: significantly augmented; capillary density (capillaries to muscle fibers, calf muscles) (ischemic hindlimb): higher capillary density; collateral growth (increase in angiographic collateral score, medial thigh) (ischemic hindlimb): significantly increased collateral growth; also recorded: significant increase; formation of rings and cords of cells (HUVECs [3]): significantly induces the formation of visible rings and cords of cells; proliferative activity in the presence of human serum (HUVECs [2]; 10% human serum, 72 h): not inhibited; also recorded: not blocked; minimal concentration necessary to induce significant increase of proliferation (HUVECs [2]; [4]): 50 ng/mL
